Laboratory results published in patent US10696615B2, “Prenylated hydroxystilbenes” (The University of Sydney, priority 2011, dated 2020).

What was measured:
IGROV1 = assay: NCI in vitro cancer screen, Ovarian Cancer; assay type: cell-based, human; conditions: IGROV1
OVCAR-8 = assay: NCI in vitro cancer screen, Ovarian Cancer; assay type: cell-based, human; conditions: OVCAR-8
HL-60 (TB) = assay: NCI in vitro cancer screen, Leukemia; assay type: cell-based, human; conditions: HL-60 (TB)
SN12C = assay: NCI in vitro cancer screen, Renal Cancer; assay type: cell-based, human
SF-295 = assay: NCI in vitro cancer screen, CNS Cancer; assay type: cell-based, human; conditions: SF-295
SF-539 = assay: NCI in vitro cancer screen, CNS Cancer; assay type: cell-based; conditions: SF-539
T-47D = assay: NCI in vitro cancer screen, Breast Cancer; assay type: cell-based, human
SNB-75 = assay: NCI in vitro cancer screen, CNS Cancer; assay type: cell-based, human; conditions: SNB-75
OVCAR-3 = assay: NCI in vitro cancer screen, Ovarian Cancer; assay type: cell-based, human; conditions: OVCAR-3
SF-268 = assay: NCI in vitro cancer screen, CNS Cancer; assay type: cell-based, human; conditions: SF-268
LOX IMVI = assay: NCI in vitro cancer screen, Melanoma; assay type: cell-based, human
SW-620 = assay: NCI in vitro cancer screen, Colon Cancer; assay type: cell-based, human; conditions: SW-620
TK-10 = assay: NCI in vitro cancer screen, Renal Cancer; assay type: cell-based, human; conditions: TK-10
HOP-92 = assay: NCI in vitro cancer screen, Non-Small Cell Lung Cancer; assay type: cell-based, human; conditions: HOP-92
MOLT-4 = assay: NCI in vitro cancer screen, Leukemia; assay type: cell-based, human; conditions: MOLT-4
K-562 = assay: NCI in vitro cancer screen, Leukemia; assay type: cell-based, human; conditions: K-562
MDA-MB-435 = assay: NCI in vitro cancer screen, Melanoma; assay type: cell-based, human; conditions: MDA-MB-435
RXF-393 = assay: NCI in vitro cancer screen, Renal Cancer; assay type: cell-based, human; conditions: RXF-393
A549/ATCC = assay: NCI in vitro cancer screen, Non-Small Cell Lung Cancer; assay type: cell-based, human
786-0 = assay: NCI in vitro cancer screen, Renal Cancer; assay type: cell-based, human; conditions: 786-0
SK-MEL-5 = assay: NCI in vitro cancer screen, Melanoma; assay type: cell-based, human; conditions: SK-MEL-5
PC-3 = assay: NCI in vitro cancer screen, Prostate Cancer; assay type: cell-based, human; conditions: PC-3
KM12 = assay: NCI in vitro cancer screen, Colon Cancer; assay type: cell-based, human; conditions: KM12
OVCAR-5 = assay: NCI in vitro cancer screen, Ovarian Cancer; assay type: cell-based, human; conditions: OVCAR-5
HOP-62 = assay: NCI in vitro cancer screen, Non-Small Cell Lung Cancer; assay type: cell-based, human; conditions: HOP-62
NCI-H226 = assay: as above; assay type: cell-based, human; conditions: NCI-H226
HS 578T = assay: NCI in vitro cancer screen, Breast Cancer; assay type: cell-based, human
NCI-H522 = assay: NCI in vitro cancer screen, Non-Small Cell Lung Cancer; assay type: cell-based, human; conditions: NCI-H522
A498 = assay: NCI in vitro cancer screen, Renal Cancer; assay type: cell-based, human; conditions: A498
UACC-62 = assay: NCI in vitro cancer screen, Melanoma; assay type: cell-based, human; conditions: UACC-62
SK-OV-3 = assay: NCI in vitro cancer screen, Ovarian Cancer; assay type: cell-based, human; conditions: SK-OV-3
[1] = Homo sapiens, read-out: LC50 (the source's name)

## CC(C)=CCc1c(O)cc(/C=C/c2ccc(O)cc2)c(CC=C(C)C)c1O [USYDS6, (E)-2,4-di(3-methyl-2-buten-1-yl)-3,4′,5-trihydroxystilbene]
IGROV1; Homo sapiens, IGROV-1
  GI50: 5.23 µM
IGROV1; Homo sapiens, IGROV-1, read-out: LC50 (the source's name)
  CC50: 54.1 µM
IGROV1
  TGI: 17.7 µM
OVCAR-8; Homo sapiens
  GI50: 2.95 µM
OVCAR-8; [1]
  CC50: 42.9 µM
OVCAR-8
  TGI: 9.51 µM
HL-60 (TB)
  TGI: 4.83 µM
HL-60 (TB); Homo sapiens
  GI50: 2.07 µM
HL-60 (TB); [1]
  CC50: 15.4 µM
SN12C
  TGI: 7.98 µM
SN12C; Homo sapiens
  GI50: 2.85 µM
SN12C; [1]
  CC50: 30.8 µM
SF-295; Homo sapiens
  GI50: 6.78 µM
SF-295; [1]
  CC50: 53.2 µM
SF-295
  TGI: 20.8 µM
SF-539; Homo sapiens
  GI50: 4.48 µM
SF-539; [1]
  CC50: 57.1 µM
SF-539
  TGI: 17.6 µM
T-47D
  TGI: 20.3 µM
T-47D; Homo sapiens, T47D
  GI50: 5.03 µM
T-47D; Homo sapiens, T47D, read-out: LC50 (the source's name)
  CC50: 57.9 µM
SNB-75; Homo sapiens
  GI50: 6.67 µM
SNB-75; [1]
  CC50: 54 µM
SNB-75
  TGI: 21.4 µM
OVCAR-3; Homo sapiens
  GI50: 2.1 µM
OVCAR-3; [1]
  CC50: 8.85 µM
OVCAR-3
  TGI: 4.31 µM
SF-268; Homo sapiens
  GI50: 2.78 µM
SF-268; [1]
  CC50: 44.3 µM
SF-268
  TGI: 8.97 µM
LOX IMVI
  TGI: 3.42 µM
LOX IMVI; Homo sapiens
  GI50: 1.76 µM
LOX IMVI; [1]
  CC50: 6.68 µM
SW-620; Homo sapiens
  GI50: 1.84 µM
SW-620; [1]
  CC50: 6.82 µM
SW-620
  TGI: 3.54 µM
TK-10; Homo sapiens
  GI50: 3.36 µM
TK-10
  TGI: 9.33 µM
HOP-92
  TGI: 4.67 µM
HOP-92; Homo sapiens
  GI50: 1.86 µM
HOP-92; [1]
  CC50: 14.5 µM
MOLT-4; Homo sapiens
  GI50: 1.59 µM
MOLT-4; [1]
  CC50: 16.8 µM
MOLT-4
  TGI: 4.27 µM
K-562; Homo sapiens, K562
  GI50: 1.46 µM
K-562; Homo sapiens, K562, read-out: LC50 (the source's name)
  CC50: 22.6 µM
K-562
  TGI: 4.13 µM
MDA-MB-435; Homo sapiens
  GI50: 3.37 µM
MDA-MB-435; [1]
  CC50: 42.1 µM
MDA-MB-435
  TGI: 10.8 µM
RXF-393; Homo sapiens
  GI50: 2.15 µM
RXF-393; [1]
  CC50: 18.7 µM
RXF-393
  TGI: 5.39 µM
A549/ATCC
  TGI: 8.42 µM
A549/ATCC; Homo sapiens
  GI50: 2.69 µM
A549/ATCC; [1]
  CC50: 33.7 µM
786-0
  TGI: 6.96 µM
786-0; Homo sapiens
  GI50: 2.46 µM
SK-MEL-5; Homo sapiens
  GI50: 2.29 µM
SK-MEL-5; [1]
  CC50: 22.1 µM
SK-MEL-5
  TGI: 6.17 µM
PC-3; Homo sapiens
  GI50: 1.8 µM
PC-3; [1]
  CC50: 8.44 µM
PC-3
  TGI: 3.89 µM
KM12; Homo sapiens
  GI50: 2.21 µM
KM12; [1]
  CC50: 8.64 µM
KM12
  TGI: 4.37 µM
OVCAR-5; Homo sapiens
  GI50: 5.86 µM
OVCAR-5; [1]
  CC50: 53.3 µM
OVCAR-5
  TGI: 20.0 µM
HOP-62
  TGI: 17.5 µM
HOP-62; Homo sapiens
  GI50: 5.11 µM
HOP-62; [1]
  CC50: 44 µM
NCI-H226; Homo sapiens
  GI50: 1.47 µM
NCI-H226
  TGI: 30.1 µM
HS 578T
  TGI: 5.29 µM
HS 578T; Homo sapiens
  GI50: 1.67 µM
HS 578T; [1]
  CC50: 35.8 µM
NCI-H522; Homo sapiens
  GI50: 2.18 µM
NCI-H522; [1]
  CC50: 17.8 µM
NCI-H522
  TGI: 5.15 µM
A498
  TGI: 25.0 µM
A498; Homo sapiens
  GI50: 11.7 µM
A498; [1]
  CC50: 53.1 µM
UACC-62; Homo sapiens
  GI50: 10.3 µM
UACC-62; [1]
  CC50: 53.8 µM
UACC-62
  TGI: 23.5 µM
SK-OV-3; Homo sapiens
  GI50: 13.9 µM
SK-OV-3; [1]
  CC50: 53.2 µM
SK-OV-3
  TGI: 27.1 µM
